Measured values from patent US20030215817A1, “Modulation of gene expression in formation of fatty atherosclerotic lesions” (priority 2003, published 2003).

How the values were obtained:
Assay type in all cases: in vivo, rabbit
[1] = test system: REC1_31 (digital address TGCA 210) mRNA, mitochondrial genome; assay: TOGA analysis, REC1_31; conditions: REC1_31 TGCA 210; rabbit aorta, cholesterol 14 days
Protocol: (§1) To perform the studies, New Zealand male rabbits weighing 2.0-2.5 kg (Charles River, Calco, Italy) were used. The rabbits were divided into three groups and maintained in identical experimental conditions: (1) control group (n=15); rabbits fed a cholesterol-rich diet; (2) lercanidipine-treated group (n=15); rabbits fed a cholesterol-rich diet and also treated with lercanidipine (3 mg/kg/week); and (3) (R)-lercanidipine-treated group (n=5); rabbits fed a cholesterol-rich diet and also treated with the (R)-enantiomer of lercanidipine (3 mg/kg/week). After a 2 week period of subcutaneous, once a week, pretreatment with 3 mg/kg/week of lercanidipine or (R)-lercanidipine, the rabbits received a daily cholesterol supplement for up to 8 weeks or 2 weeks, respectively. In the following examples, use of the term “lercanidipine” refers to the racemic mixture of lercanidipine hydrochloride, whereas “(R)-lercanidipine” refers to the (R)-enantiomer of lercanidipine hydrochloride.
(§2) The mRNA from the above-described groups was isolated from aorta at different time points, resulting in the following mRNA samples: (1) Day 0 Control=no administered cholesterol, no lercanidipine; (2) Day 0+lercanidipine=no administered cholesterol, treatment with lercanipidine (2 weeks; 3 mg/kg/week); (3) Day 14 Control=cholesterol diet for two weeks, no lercanidipine; (4) Day 14+lercanidipine=cholesterol diet for two weeks, treatment with lercanidipine (four weeks; 3 mg/kg/week); (5) Week 8 Control=cholesterol diet for 8 weeks, no lercanidipine; and (6) Week 8+lercanidipine=cholesterol diet for 8 weeks, treatment with lercanidipine (10 weeks; 3 mg/kg/week). In addition, Day 14+(R)-lercanidipine mRNA samples were prepared from rabbits given a cholesterol diet for two weeks and treated with 3 mg/kg/week (R)-lercanidipine for four weeks.
(§3) Aorta mRNAs were prepared in the following manner. First, the aortas from each experimental group were retrieved and shredded using a polytron homogenizer. The samples were further homogenized using a teflon pestle, after which the cellular debris, nuclei, and blood cells were pelleted by centrifugation. The supernatants were extracted twice with phenol-chloroform-isoamyl alcohol and once with chloroform-isoamyl alcohol. RNA was then precipitated from the aqueous phase with ethanol. The poly A+ mRNA was prepared using standard methods of polyA selection known in the art (Schriber et al., J. Mol. Biol., 142:93-116 (1980)).
(§4) The isolated mRNA was analyzed using a method of simultaneous sequence-specific identification of mRNAs known as TOGA, described in U.S. Pat. No. 5,459,037 and U.S. Pat. No. 5,807,680, hereby incorporated herein by reference. In a preferred embodiment, the TOGA method further comprised an additional PCR step performed using a mixture of four 5′ PCR primers and cDNA templates prepared from a population of antisense cRNAs. A final PCR step that used a mixture of 256 5′ PCR primers produced PCR products that were cDNA fragments that corresponded to the 3′-region of the starting mRNA population. The produced PCR products were then identified by: (a) the initial 5′ sequence comprising the sequence remainder of the recognition site of the restriction endonuclease used to cut and isolate the 3′ region plus the sequence of the preferably four parsing bases immediately 3′ to the remainder of the recognition site, preferably the sequence of the entire fragment; and (b) the length of the fragment. These two parameters, sequence and fragment length, were used to compare the obtained PCR products to a database of known polynucleotide sequences. Since the length of the obtained PCR products includes known vector sequences at the 5′ and 3′ ends of the insert, the sequence of the insert provided in the sequence listing is shorter than the fragment length that forms part of the digital address.
(§5) The method yields Digital Sequence Tags (DSTs), that is, polynucleotides that are expressed sequence tags of the 3′ end of mRNAs. […]

[2] = test system: REC1_1 (MspI AAGC 288) mRNA, TYRO protein tyrosine kinase binding p; assay: TOGA analysis, REC1_1; conditions: REC1_1, AAGC 288; rabbit aorta; 14 days cholesterol + (R)-enantiomer
Protocol: as §1, §2, §3, §4, §5

[3] = test system: REC1_37 (digital address TTCA 264) mRNA, ribosomal protein L15; assay: TOGA analysis, REC1_37; conditions: REC1_37 TTCA 264; rabbit aorta, cholesterol 14 days
Protocol: as §1, §2, §3, §4, §5

[4] = test system: REC1_33 (digital address CCGA 96) mRNA, as1_casein gene; assay: TOGA analysis, REC1_33; conditions: REC1_33 CCGA 96; rabbit aorta, 14 days cholesterol
Protocol: as §1, §2, §3, §4, §5

[5] = test system: REC1_24 (digital address CCGG 232) mRNA; assay: TOGA analysis, REC1_24; conditions: REC1_24 CCGG 232; rabbit aorta, 14 days cholesterol
Protocol: as §1, §2, §3, §4, §5

REC1_19 (TGTT 393) mRNA = assay: TOGA analysis, REC1_19; conditions: REC1_19 TGTT 393; rabbit aorta, cholesterol 14 days
Protocol: as §1, §2, §3
as §4, with “These two parameters, sequence and fragment length, were used to compare the obtained PCR products to a database of known polynucleotide sequences. Since the length of the obtained PCR products includes known vector sequences at the 5′ and 3′ ends of the insert, the sequence of the insert provided in the sequence listing is shorter than the fragment length that forms part of the digital address.” left out

[6] = test system: REC1_13 (MspI GCCC 216) mRNA; assay: TOGA analysis, REC1_13; conditions: REC1_13 GCCC 216; rabbit aorta, 14 days cholesterol
Protocol: as §1, §2, §3
as §4, with “These two parameters, sequence and fragment length, were used to compare the obtained PCR products to a database of known polynucleotide sequences. Since the length of the obtained PCR products includes known vector sequences at the 5′ and 3′ ends of the insert, the sequence of the insert provided in the sequence listing is shorter than the fragment length that forms part of the digital address.” left out

[7] = test system: REC1_28 (digital address CGGT 101) mRNA, calgizzarin; assay: TOGA analysis, REC1_28; conditions: REC1_28 CGGT 101; rabbit aorta, 14 days cholesterol
Protocol: as §1, §2, §3, §4, §5

[8] = test system: REC1_34 (digital address CGGT 209) mRNA; assay: TOGA analysis, REC1_34; conditions: REC1_34 CGGT 209; rabbit aorta, 14 days cholesterol
Protocol: as §1, §2, §3, §4, §5

[9] = test system: REC1_22 (digital address TGGG 164) mRNA; assay: TOGA analysis, REC1_22; conditions: REC1_22 TGGG 164; rabbit aorta, cholesterol 14 days
Protocol: as §1, §2, §3, §4, §5

[10] = test system: REC1_7 (MspI CACA 282) mRNA; assay: TOGA analysis, REC1_7; conditions: REC1_7, CACA 282; rabbit aorta; 14 days cholesterol + (R)-enantiomer
Protocol: as §1, §2, §3, §4, §5

[11] = test system: REC1_12 (GCCC 232) mRNA, alpha smooth muscle actin; assay: TOGA analysis, REC1_12; conditions: REC1_12 GCCC 232; rabbit aorta, 14 days cholesterol
Protocol: as §1, §2, §3
as §4, with “These two parameters, sequence and fragment length, were used to compare the obtained PCR products to a database of known polynucleotide sequences. Since the length of the obtained PCR products includes known vector sequences at the 5′ and 3′ ends of the insert, the sequence of the insert provided in the sequence listing is shorter than the fragment length that forms part of the digital address.” left out

SMILES: COC(=O)C1=C(C)NC(C)=C(C(=O)OC(C)(C)CN(C)CCC(c2ccccc2)c2ccccc2)[C@@H]1c1cccc([N+](=O)[O-])c1 [Lercanidipine (R)]
- level of gene expression, 14 Day hypercholesterol + Lercanidipine (R) [1]: 28
- level of gene expression (TOGA), 14 Day hypercholesterol + Lercanidipine (R) [2]: 872
- level of gene expression, 14 Day hypercholesterol + Lercanidipine (R) [3]: 42
- level of gene expression, 14 Day hypercholesterol + Lercanidipine (R) [4]: 170
- level of gene expression, 14 Day hypercholesterol + Lercanidipine (R) [5]: 139
- level of gene expression, 14 Day hypercholesterol + Lercanidipine (R) (REC1_19 (TGTT 393) mRNA): 748
- level of gene expression, 14 Day hypercholesterol + Lercanidipine (R) [6]: 404
- level of gene expression, 14 Day hypercholesterol + Lercanidipine (R) [7]: 864
- level of gene expression, 14 Day hypercholesterol + Lercanidipine (R) [8]: 58
- level of gene expression, 14 Day hypercholesterol + Lercanidipine (R) [9]: 47
- level of gene expression (TOGA), 14 Day hypercholesterol + Lercanidipine (R) [10]: 683
- level of gene expression, 14 Day hypercholesterol + Lercanidipine (R) [11]: 3993
